According to US20030044399A1, “Method of treatment” (SmithKline Beecham Corporation, priority 1998, published 2003):

molecular target: Cruzain (Trypanosoma cruzi, UniProt P25779); assay: Cysteine protease inhibition, progress curve method, cruzain; format: biochemical; conditions: 4 uM Ac-Lys-Glu-Lys-Leu-Arg-AMC, 100 mM Na acetate pH 5.5, 5 mM cysteine; read-out: Cruzain Ki
Protocol: (§1) Standard assay conditions for the determination of kinetic constants used 10 uM fluorogenic peptide substrate, Cbz-Phe-Arg-AMC for the cysteine proteases from Leishmania spp and Schistosoma Mansoni, Cbz-Leu-Arg-AMC for the cysteine proteases from Plasmodium falciparum and Trypanosoma brucei rhodesiensi, and Ac-Lys-Glu-Lys-Leu-Arg-AMC (4 uM final substrate concentration) for the cysteine protease from Trypoanosoma cruzi, and were determined in 100 mM Na acetate at pH 5.5 containing 5 mM cysteine. Stock substrate solutions were prepared at concentrations of […] in DMSO with 10 uM (4 uM for Ac-Lys-Glu-Lys-Leu-Arg-AMC) final substrate concentration in the assays. The final DMSO concentration was 2% and the final volume was 100 uL. All assays were conducted at ambient temperature. Product progress curves were generated over 20 to 30 minutes following formation of AMC product.
(§2) Potential inhibitors were evaluated using the progress curve method. Assays were carried out in the presence of variable concentrations of test compound. Reactions were initiated by addition of enzyme to buffered solutions of inhibitor and substrate. Data analysis was conducted according to one of two procedures depending on the appearance of the progress curves in the presence of inhibitors. For those compounds whose progress curves were linear, apparent inhibition constants (Ki,app) were calculated according to equation 1 (Brandt et al., Biochemitsry, 1989, 28, 140):
(§3) v=VmA/[Ka(1+I/Ki,app)+A] (1)
(§4) Where v is the velocity of the reaction with maximal velocity Vm, A is the concentration of substrate with Michaelis constant of Ka, and I is the concentration of inhibitor.
(§5) [AMC]=vsst+(v0−vss)[1−exp (−kobst)]/kobs (2)
(§6) Where [AMC] is the concentration of product formed over time t, v0 is the initial reaction velocity and vss is the final steady state rate. Values for kobs were then analyzed as a linear function of inhibitor concentration to generate an apparent second order rate constant (kobs/inhibitor concentration or kobs/[I]) describing the time-dependent inhibition. A complete discussion of this kinetic treatment has been fully described (Morrison et al., Adv. Enzymol. Relat. Areas Mol. Biol., 1988, 61, 201).
(§7) Exemplary inhibition data for the compounds used in the present method collected in accordance with the above-described procedure are listed in Table I.

Cruzain, sequence (P25779 123-337): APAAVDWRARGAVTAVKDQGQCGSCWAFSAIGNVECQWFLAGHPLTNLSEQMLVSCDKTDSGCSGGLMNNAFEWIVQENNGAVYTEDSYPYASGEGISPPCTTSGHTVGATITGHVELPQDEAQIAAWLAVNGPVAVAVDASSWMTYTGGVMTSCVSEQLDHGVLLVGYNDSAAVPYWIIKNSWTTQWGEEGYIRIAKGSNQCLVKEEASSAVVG

Compound	Ki [nM]
CC(C)C[C@@H](NC(=O)c1ccc2c(c1)OCCCO2)C(=O)N[C@@H]1CCCN(S(=O)(=O)c2cccc[n+]2[O-])CC1=O [Example 60, 3,4-Dihydro-2H-benzo[b][1,4]dioxepine-7-carboxylic acid {(S)-3-methyl-1-[3-oxo-1-(1-oxy-pyridine-2-sulfonyl)-azepan-4-ylcarbamoyl]butyl}amide]	9.8
CC(C)C[C@@H](NC(=O)c1cc(Br)c(Br)s1)C(=O)N[C@@H]1CCCN(S(=O)(=O)c2cccc[n+]2[O-])CC1=O [Example 61, 4,5-Dibromo-thiophene-2-carboxylic acid {(S)-3-methyl-1-[3-oxo-1-(1-oxy-pyridine-2-sulfonyl)-azepan-4-ylcarbamoyl]-butyl}amide]	40
COc1ccc(S(=O)(=O)N2CCC[C@H](NC(=O)[C@H](CC(C)C)NC(=O)CNC(=O)c3ccco3)C(=O)C2)cc1 [Example 82]	17
CC(C)C[C@H](NC(=O)c1cc2ccccc2s1)C(=O)NC1CCCN(S(C)(=O)=O)CC1=O (stereo partly drawn) [Example 111, Benzo[b]thiophene-2-carboxylic acid-{(S)-1-(1-methanesulfonyl-3-oxo-azepan-4-ylcarbamoyl)-3-methyl-butyl]-amide]	18
CC(C)CC(NC(=O)c1ccc(S(C)(=O)=O)cc1)C(=O)N[C@@H]1CCCN(S(=O)(=O)c2ccccc2C#N)CC1=O (stereo partly shown) [Example 114]	14
CC(C)C[C@@H](NC(=O)c1ccc(S(C)(=O)=O)cc1)C(=O)N[C@@H]1CCCN(S(=O)(=O)c2ccc(F)cc2)CC1=O [Example 121, 4-Methansulfonyl-N—{(S)-1-[4-fluoro-benzenesulfonyl)-3-oxo-azepan-4-carbamoyl]-3-methyl-butyl-benzamide]	11
CC(C)C[C@H](NC(=O)c1cc2ccccc2s1)C(=O)N[C@@H]1CCCN(S(=O)(=O)c2cccs2)CC1=O [Example 146, Benzo[b]thiophene-2-carboxylic acid-{(S)-3-methyl-1-[3-oxo-1-(thiophene-2-sulfonyl)-azepan-4-ylcarbamoyl]-butyl}-amide]	6.7
CC(C)C[C@@H](NC(=O)c1cc2cc(F)c(F)cc2o1)C(=O)N[C@H]1CCCN(S(=O)(=O)c2cccc[n+]2[O-])CC1=O [Example 163, 5,6-Difluoro-benzofuran-2-carboxylic acid {(S)-3-methyl-1-[3-oxo-1-(1-oxy-pyridine-2-sulfonyl)-azepan-4-ylcarbamoyl]-butyl}amide]	13
Cc1c(C(=O)N[C@H](CC(C)C)C(=O)N[C@H]2CCCN(S(=O)(=O)c3cccc[n+]3[O-])CC2=O)oc2ccc(F)cc12 [Example 192, 5-Fluoro-3-methyl-benzofuran-2-carboxylic acid {(S)-3-methyl-1-[3-oxo-1-(1-oxy-pyridine-2-sulfonyl)-azepan-4-ylcarbamoyl]-butyl}-amide]	14
COc1cccc2oc(C(=O)N[C@@H](CC(C)C)C(=O)N[C@H]3CCN(S(=O)(=O)c4cccc[n+]4[O-])CCC3=O)c(C)c12 [Example 203, 4-Methoxy-3-methyl-benzofuran-2-carboxylic acid {(S)-3-methyl-1-[3-oxo-1-(1-oxy-pyridine-2-sulfonyl)-azepan-4-ylcarbamoyl]-butyl}-amide]	20

Continued, values first:

Ki [nM]	Compound
15	CC(C)CC(NC(=O)NCc1ccccc1)C(=O)NC1CCCN(S(=O)(=O)c2ccccn2)CC1=O [Example 80, (S)-2-(3-Benzyl-ureido)-4-methyl-pentanoic acid [3-oxo-carboxylic-(pyridine-2-sulfonyl)azepan4-yl]-amide]
6.2	CC(C)C[C@H](NC(=O)c1cc2ccccc2o1)C(=O)N[C@H]1CCCN(S(=O)(=O)c2ccccc2F)CC1=O [Example 91]
11	CC(C)C[C@H](NC(=O)c1cc2ccccc2s1)C(=O)N[C@H]1CCCN(S(=O)(=O)c2ccccc2F)CC1=O [Example 95, Benzo[b]thiophene-2-carboxylic acid-{(S)-1-[1-(2-fluoro-benzenesulfonyl)-3-oxo-azepan-4-ylcarbamoyl]-3-methyl-butyl}-amide]
8.7	CC(C)C[C@H](NC(=O)c1cnc2ccccc2n1)C(=O)N[C@H]1CCCN(S(=O)(=O)c2ccccc2F)CC1=O [Example 96, Quinoxaline-2-carboxylic acid-{(S)-1-[1-(2-fluoro-benzenesulonyl)-3-oxo-azepan-4-ylcarbamoyl]-3-methyl-butyl}-amide]
60	CCCC[C@H](NC(=O)c1cc2ccccc2o1)C(=O)NC1CCCN(S(=O)(=O)c2ccccn2)CC1=O (stereo partly drawn) [Example 103, Benzofuran-2-carboxylic acid{(S)-1-[3-oxo-1-(pyridine-2-sulfonyl)-azepan-4-ylcarbamoyl]-pentyl}-amide]
14	CC(C)CC(NC(=O)c1cc2ccccc2o1)C(=O)N[C@@H]1CCCN(S(=O)(=O)c2ccccc2C#N)CC1=O (stereo partly shown) [Example 115]
18	Cc1ccc(C(=O)N[C@H](CC(C)C)C(=O)N[C@@H]2CCCN(S(=O)(=O)c3cccc[n+]3[O-])CC2=O)cn1 [Example 118]
7.5	CC(C)C[C@H](NC(=O)c1cnc2ccccc2n1)C(=O)N[C@@H]1CCCN(S(=O)(=O)c2cccs2)CC1=O [Example 147, Quinoxaline-2-carboxylic acid-{(S)-3-methyl-1-[3-oxo-1-(thiophene-2-sulfonyl)-azepan-4-ylcarbamoyl]-butyl}-amide]
6.8	CC(C)C[C@H](NC(=O)[C@H]1CCC(=O)N1Cc1ccccc1)C(=O)N[C@@H]1CCCN(S(=O)(=O)c2ccccn2)CC1=O [Example 158]

same assay, conditions: Cruzain Ki nM, 4 uM Ac-Lys-Glu-Lys-Leu-Arg-AMC, 100 mM Na acetate pH 5.5, 5 mM cysteine

Compound	Ki [nM]
Cc1c(C(=O)NC(CC(C)C)C(=O)NC2CCCN(S(=O)(=O)c3cccc[n+]3[O-])CC2=O)oc2ccc3ccccc3c12 [Example 210, 1-methyl-naphtho[2,1-b]-furan-2-carboxylic acid {(S)-3-methyl-1-[3oxo-1-(1-oxy-pyridine-2-sulfonyl)-azepan-4-ylcarbamoyl]-butyl}-amide]	6.6

molecular target: Rhodazain (Trypanosoma brucei rhodesiense, UniProt Q95PM0); assay: Cysteine protease inhibition, progress curve method, rhodazain; format: biochemical, Trypanosoma brucei rhodesiensi; conditions: Rhodazain Ki (nM), 10 uM Cbz-Leu-Arg-AMC, 100 mM Na acetate pH 5.5, 5 mM cysteine
Protocol: as §1, §2, §3, §4, §5, §6, §7

Rhodazain, sequence (Q95PM0 entry or part of it): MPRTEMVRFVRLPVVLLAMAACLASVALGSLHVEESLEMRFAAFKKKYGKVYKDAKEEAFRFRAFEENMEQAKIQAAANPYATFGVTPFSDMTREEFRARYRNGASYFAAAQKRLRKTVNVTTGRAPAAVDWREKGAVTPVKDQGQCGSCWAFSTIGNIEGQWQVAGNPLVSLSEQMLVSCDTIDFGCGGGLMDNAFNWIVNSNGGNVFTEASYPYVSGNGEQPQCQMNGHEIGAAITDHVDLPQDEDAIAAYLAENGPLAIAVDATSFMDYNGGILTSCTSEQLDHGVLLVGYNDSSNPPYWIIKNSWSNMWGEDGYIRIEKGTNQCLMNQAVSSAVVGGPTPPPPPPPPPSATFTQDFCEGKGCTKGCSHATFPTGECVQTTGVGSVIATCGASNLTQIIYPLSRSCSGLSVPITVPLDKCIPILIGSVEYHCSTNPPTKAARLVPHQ

Compound	Ki [nM]
CC(C)C[C@@H](NC(=O)c1cc2cc(F)ccc2o1)C(=O)N[C@@H]1CCCN(S(=O)(=O)c2ccccn2)CC1=O (single isomer, unassigned) [Example 168]	2.7
CC(C)C[C@@H](NC(=O)c1ccc2ccccc2c1)C(=O)N[C@@H]1CCCN(S(=O)(=O)c2ccccn2)CC1=O (stereo in doubt) [Example 17, Naphthalene-2-carboxylic acid {(S)-3-methyl-1-[3-oxo-1-(pyridine-2-sulfonyl)-azepan-4-ylcarbamoyl]butyl}-amide]	8.3
CC(C)C[C@@H](NC(=O)c1ccc(-c2ccc([N+](=O)[O-])cc2)o1)C(=O)N[C@@H]1CCCN(S(=O)(=O)c2ccccn2)CC1=O (stereo in doubt) [Example 36, 5-(4-Nitro-phenyl)-furan-2-carboxylic acid {(S)-3-methyl-1-[3-oxo-1-(pyridine-2-sulfonyl)-azepan-4-ylcarbamoyl]-butyl}amide]	9.1
O=C(N[C@H](CC1CCCCC1)C(=O)N[C@@H]1CCCN(S(=O)(=O)c2ccccn2)CC1=O)c1cc2ccccc2o1 (stereo in doubt) [Example 102, Benzofuran-2-carboxylic acid {(S)-2-cyclohexyl-1-[3-oxo-1-(pyridine-2-sulfonyl)-azepan-4-ylcarbamoyl]-ethyl}-amide]	3.7
CC(C)C[C@@H](NC(=O)c1cc2cc(F)ccc2o1)C(=O)N[C@H]1CCCN(S(=O)(=O)c2ccccn2)CC1=O (stereo in doubt) [Example 166, 5-Fluoro-benzofuran-2-carboxylic acid {(S)-3-methyl-1-[3-oxo-1-(pyridine-2-sulfonyl)-azepan-4-ylcarbamoyl]-butyl}-amide]	6
O=C(N[C@H](Cc1ccccc1)C(=O)N[C@@H]1CCCN(S(=O)(=O)c2ccccn2)CC1=O)c1ccc2ccccc2n1 (stereo in doubt) [Example 180, Quinoline-2-carboxylic acid {(S)-1-[3-oxo-1-(pyridine-2-sulfonyl)-azepan-4-ylcarbamoyl]-2-phenyl-ethyl}-amide]	9.3
CC(C)C[C@@H](NC(=O)c1cnc2ccccc2c1)C(=O)N[C@@H]1CCCN(S(=O)(=O)c2ccccn2)CC1=O [Example 27]	13
CC(C)C[C@H](NC(=O)c1cc2ccccc2o1)C(=O)N[C@H]1CCCN(S(=O)(=O)c2ncc[nH]2)CC1=O [Example 41, Benzofuran-2-carboxylic acid {(S)-3-methyl-1-[1-(1H-imidazole-2-sulfonyl)-3-oxo-azepan-4-ylcarbamoyl]-butyl}amide]	2.9
